One data set deals with neutrophil. To be noted: in vitro; cited from earlier work.
Data set [1] deals with PGP production by CF sputum on type I collagen. Put plainly: Ex vivo collagen assay: PGP generation by pooled CF sputum with inhibitors. Type of data set: biochemical, human. As to the method:
(§1) Electrospray ionization liquid chromatography-MS/MS. (ESI-LC/MS/MS) for PGP detection PGP and N-α-PGP were measured for in vitro and sputum samples using a MDS Sciex (Applied Biosystems, Foster City, Calif.) API-4000 spectrometer equipped with a Shimadzu HPLC. HPLC was done using a 2.1×150-mm Develosi C30 column (with buffer A: 0.1% formic acid, and buffer B: acetonitrile plus 0.1% formic acid); at 0-0.6 min, 80% buffer A/20% buffer B and at 0.6-5 min, the gradient is up to 0% buffer A/100% buffer B. Background was removed by flushing with 100% isopropanol plus 0.1% formic acid. Positive electrospray mass transitions were at 270-70 and 270-116 for PGP and 312-140 and 312-112 for N-α-PGP.
Ex vivo collagen assay. One hundred microliters of saline-diluted sputum was incubated with extensively dialyzed, intact type I or II collagen (50 μl, 1 mg/ml) for 24 h at 37° C. and 5% CO2. The samples were filtered through a 10-kDa filter, washed with 20 μl of 1 N HCl, and analyzed using ESI-LC-MS/MS for levels of PGP and N-αPGP. Amounts of PGP and N-α-PGP generated by each sputum sample were determined by subtracting basal levels already present in each sample.
For the inhibitor experiments, these pooled sputa were treated with noted inhibitor and allowed to incubate for 6 h. At 6 h, dialyzed collagen was added to the sample and sample was further incubated for 18 h. Inhibitor concentrations used were: MMP-8, -9, and -2 at 50 μM, PE at 100 μM, and doxycycline at 1 mM.

Data set [2] concerns PGP production in murine airways. Put plainly: In vivo murine intratracheal protease administration, PGP in bronchoalveolar lavage fluid. The arrangement: species or system BALB/c mice. To be noted: 50 μl, lavage 24 h later, ESI LC-MS/MS, vs PBS control. As to the method:
In vivo PGP production was examined using MMPs or human neutrophil elastase (HNE) with or without PE. Various proteases (50 μl) were administered intratracheally into murine (4- to 6-wk-old BALB/c mice) airways and bronchoalveolar lavage fluid was collected 24 h later. PGP levels were determined using ESI LC-MS/MS. […] Number of mice per group=6.
as §1
In vivo murine administration. Mice underwent intratracheal protease administration as described in FIG. 5 legend. MMPs were preactivated using 1 mM aminophenylmercuric acetate for 2 hours at 37° C. The concentrations of proteases administered were: MMP-8, MMP-9, and MMP-12: 55.6 μg/kg; HNE: 200 μg/kg; and PE: 18.4 mg/kg. […]

Data on five molecules can be found in patent US8524654B2, “Prolyl endopeptidase inhibitors for reducing or preventing neutrophilic inflammation” (The UAB Research Foundation, priority 2007, dated 2013).

“Also recorded” adds a separate entry of the source. Residues, ends and D or L forms follow the SMILES beside them. *: point of attachment. Cbz = O=C(OCc1ccccc1)*

proline-glycine-proline [PGP]: the “potency as neutrophil chemoattractant relative to N-α-PGP” value in the data set on neutrophil is “four to seven times less potent”.
Consider `CCCCCCCC/C=C\CCCCCCCC(=O)NO` [MMP-2-specific inhibitor, cis-9-octadecenoyl-N-hydroxylamide], for which the “inhibition of PGP production compared with CF sputum alone” value in data set [1] (MMP-8, -9, -2 inhibitors at 50 μM, 6 h with pooled CF sputum, then type I collagen, 50 µM) was “minimal effects; also recorded: Neither MMP-2-nor HNE-specific inhibitors resulted in significant changes”.
For the molecule `CC(C)(C)C(=O)Oc1ccc(S(=O)(=O)Nc2ccccc2C(=O)NCC(=O)O)cc1` [HNE-specific inhibitor, N-(2-(4-(2,2-dimethylpropionyloxy)phenylsulfonylamino)benzoyl)aminoacetic acid N-(o-(p-pivaloyloxybenzene)sulfonylaminobenzoyl) glycine], in data set [1] (HNE inhibitor, concentration not given, pooled CF sputum, type I collagen), the “inhibition of PGP production compared with CF sputum alone” value is “minimal effects; also recorded: Neither MMP-2-nor HNE-specific inhibitors resulted in significant changes”.
For the molecule `O=CC1CCCN1C(=O)C1CCCN1C(=O)OCc1ccccc1` (stereo not drawn) [PE inhibitor, Z-prolyl prolinal] (Cbz-Pro-Pro-aldehyde; configuration not given here), the “inhibition of PGP production compared with CF sputum alone” value in data set [1] (PE inhibitor at 100 μM, 6 h with pooled CF sputum, then type I collagen, 100 µM) is on record as “completely blocked; also recorded: complete blockade”.

B1: HNE: Recombinant human neutrophil elastase (protein, UniProt P08246 30-267, looked up)
Neutrophil elastase: IVGGRRARPHAWPFMVSLQLRGGHFCGATLIAPNFVMSAAHCVANVNVRAVRVVLGAHNLSRREPTRQVFAVQRIFENGYDPVNLLNDIVILQLNGSATINANVQVAQLPAQGRRLGNGVQCLAMGWGLLGRNRGIASVLQELNVTVVTSLCRRSNVCTLVRGRQAGVCFGDSGSPLVCNGLIHGIASFVRGGCASGLYPDAFAPVAQFVNWIDSIIQRSEDNPCPHPRDPDPASRTH
Turning to B1, the “PGP production in bronchoalveolar lavage fluid” value in data set [2] is on record as “did not generate PGP”.
